Experiments:
Type in all cases: biochemical
thrombin = thrombin (Homo sapiens, UniProt P00734); experiment: Enzyme selectivity: thrombin (chromogenic substrate S-2238); details: chromogenic substrate S-2238, 37° C.
In short: (§1)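 Each human protease incubated at 37° C with its own chromogenic substrate: trypsin S-2222, thrombin S-2238, plasma kallikrein S-2302, plasmin S-2390. Residual activity taken as initial reaction rate from absorbance change at 405 nm.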

trypsin = experiment: Enzyme selectivity: trypsin (chromogenic substrate S-2222); details: human enzyme, chromogenic substrate S-2222, 37° C.
In short: as §1

Human KLK1 = target: T1, Human KLK1 (Homo sapiens, UniProt P06870); experiment: Determination of the IC50 for KLK1 (fluorogenic substrate H-DVal-Leu-Arg-AFC); details: 37° C.
T1 construct: purchased Callbiochem (Calbiochem)
In short: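 IC50 values reflect residual human KLK1 activity, read as initial rate from optical absorbance change at 410 nm. Incubations ran at 37° C with H-DVal-Leu-Arg-AFC as substrate across a compound concentration series.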

plasma kallikrein = plasma kallikrein (Homo sapiens, UniProt P03952); experiment: Enzyme selectivity: plasma kallikrein (chromogenic substrate S-2302); details: chromogenic substrate S-2302, 37° C.
In short: as §1

plasmin = plasmin (Homo sapiens, UniProt P00747); experiment: Enzyme selectivity: plasmin (chromogenic substrate S-2390); details: chromogenic substrate S-2390, 37° C.
In short: as §1

plasma kallikrein, sequence (P03952 20-638): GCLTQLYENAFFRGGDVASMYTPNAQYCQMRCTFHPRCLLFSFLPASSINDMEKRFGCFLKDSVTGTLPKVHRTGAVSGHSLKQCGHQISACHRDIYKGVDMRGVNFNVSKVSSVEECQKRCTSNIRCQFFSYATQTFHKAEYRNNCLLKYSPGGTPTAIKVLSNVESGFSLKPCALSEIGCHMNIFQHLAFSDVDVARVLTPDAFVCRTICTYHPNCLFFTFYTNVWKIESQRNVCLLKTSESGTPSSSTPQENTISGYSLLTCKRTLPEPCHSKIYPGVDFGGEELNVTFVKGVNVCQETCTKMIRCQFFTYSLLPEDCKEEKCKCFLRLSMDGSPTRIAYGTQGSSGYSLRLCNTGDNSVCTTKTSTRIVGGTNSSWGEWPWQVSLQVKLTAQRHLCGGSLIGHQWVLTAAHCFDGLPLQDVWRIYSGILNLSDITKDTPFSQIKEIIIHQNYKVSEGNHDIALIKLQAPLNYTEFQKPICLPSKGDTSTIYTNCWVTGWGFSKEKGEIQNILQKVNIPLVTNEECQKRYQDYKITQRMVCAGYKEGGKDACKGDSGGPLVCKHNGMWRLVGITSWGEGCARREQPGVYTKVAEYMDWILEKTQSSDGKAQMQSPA
plasmin, sequence (P00747 581-810 limits assumed): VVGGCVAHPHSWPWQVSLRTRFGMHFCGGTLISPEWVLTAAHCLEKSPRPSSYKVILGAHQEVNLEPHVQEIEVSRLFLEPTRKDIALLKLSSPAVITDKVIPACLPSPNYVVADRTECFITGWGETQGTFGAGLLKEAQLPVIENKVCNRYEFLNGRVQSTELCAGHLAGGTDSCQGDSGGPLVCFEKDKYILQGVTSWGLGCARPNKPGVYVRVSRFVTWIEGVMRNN
plasmin, sequence (P00747 97-580 partner limits assumed): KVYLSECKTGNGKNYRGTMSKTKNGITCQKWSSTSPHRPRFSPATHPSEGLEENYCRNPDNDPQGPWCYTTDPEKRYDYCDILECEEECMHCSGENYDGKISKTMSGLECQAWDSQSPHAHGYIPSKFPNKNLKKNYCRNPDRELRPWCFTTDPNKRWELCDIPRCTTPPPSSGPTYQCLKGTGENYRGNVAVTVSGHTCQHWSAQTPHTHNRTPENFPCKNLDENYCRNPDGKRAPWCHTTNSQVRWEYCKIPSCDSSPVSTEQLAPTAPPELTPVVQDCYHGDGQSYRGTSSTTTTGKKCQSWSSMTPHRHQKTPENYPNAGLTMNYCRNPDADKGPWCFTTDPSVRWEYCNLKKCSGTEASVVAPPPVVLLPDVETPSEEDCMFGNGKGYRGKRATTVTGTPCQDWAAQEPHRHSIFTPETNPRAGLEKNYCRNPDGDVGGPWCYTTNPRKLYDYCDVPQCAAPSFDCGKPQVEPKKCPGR
T1 sequence (P06870 25-262): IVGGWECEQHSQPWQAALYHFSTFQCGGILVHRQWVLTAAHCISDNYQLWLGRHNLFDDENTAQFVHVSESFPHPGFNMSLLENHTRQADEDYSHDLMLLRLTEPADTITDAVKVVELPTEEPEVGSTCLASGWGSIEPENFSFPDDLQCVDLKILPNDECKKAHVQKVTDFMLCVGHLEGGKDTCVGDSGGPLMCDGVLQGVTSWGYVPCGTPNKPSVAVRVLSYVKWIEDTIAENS

For CC1CCCC(C)N1CC(=O)N[C@@H](Cc1ccc(F)c(F)c1)C(=O)NCc1ccc(N)nc1 (stereo partly drawn) [Example 365, (S)—N-(6-Amino-pyridin-3-ylmethyl)-3-(3,4-difluoro-phenyl)-2-[2-(2,6-dimethyl-piperidin-1-yl)-acetylamino]-propionamide], the IC50 (thrombin) was > 10 µM, the IC50 (trypsin) was > 10 µM and the IC50 (Human KLK1) was 0.0025 µM. For the same molecule, the IC50 (plasma kallikrein) was > 10 µM and the IC50 (plasmin) was > 10 µM.

With CCN(CC)[C@@H](C)C(=O)N[C@@H](CC1CCCCC1)C(=O)NCc1ccc(N)nc1 [Example 390, (S)—N-{(S)-1-[(6-Amino-pyridin-3-ylmethyl)-carbamoyl]-2-cyclohexyl-ethyl}-2-diethylamino-propionamide] the IC50 (thrombin) was > 10 µM, the IC50 (trypsin) was > 10 µM and the IC50 (Human KLK1) was 0.0027 µM. The IC50 (plasma kallikrein) was > 10 µM and the IC50 (plasmin) was > 10 µM.

With CN1CCC[C@@H]1C(=O)N[C@@H](Cc1ccc(Cl)c(Cl)c1)C(=O)NCc1ccc(N)nc1 [Example 90, (R)-1-Methyl-pyrrolidine-2-carboxylic acid [(S)-1-[(6-amino-pyridin-3-ylmethyl)-carbamoyl]-2-(3,4-dichloro-phenyl)-ethyl]-amide] the IC50 (thrombin) was > 10 µM, the IC50 (trypsin) was > 10 µM and the IC50 (Human KLK1) was 0.00086 µM. For the same molecule, the IC50 (plasma kallikrein) was > 10 µM and the IC50 (plasmin) was > 10 µM.

With CN1CCCC[C@@H]1C(=O)N[C@@H](Cc1ccc(F)cc1)C(=O)NCc1ccc(N)nc1 [Example 145, (R)-1-Methyl-piperidine-2-carboxylic acid [(S)-1-[(6-amino-pyridin-3-ylmethyl)-carbamoyl]-2-(4-fluoro-phenyl)-ethyl]-amide] the IC50 (thrombin) was > 10 µM, the IC50 (trypsin) was > 10 µM and the IC50 (Human KLK1) was 0.0105 µM. For the same molecule, the IC50 (plasma kallikrein) was > 10 µM and the IC50 (plasmin) was > 10 µM.

In the case of Cc1cc(C)c(C(=O)N[C@@H](Cc2cccc3ccccc23)C(=O)NCc2ccc(N)nc2)[nH]1 [Example 231, 3,5-Dimethyl-1H-pyrrole-2-carboxylic acid {(S)-1-[(6-amino-pyridin-3-ylmethyl)-carbamoyl]-2-naphthalen-1-yl-ethyl}-amide], the IC50 (thrombin) is reported as > 10 µM, the IC50 (trypsin) is reported as > 10 µM and the IC50 (Human KLK1) is reported as 0.0031 µM. The IC50 (plasma kallikrein) was > 10 µM and the IC50 (plasmin) was > 10 µM.

In the case of CC(C)N(C)[C@@H](C)C(=O)N[C@@H](Cc1ccc(F)c(F)c1)C(=O)NCc1ccc(N)nc1 [Example 176, (S)—N-[(S)-1-[(6-Amino-pyridin-3-ylmethyl)-carbamoyl]-2-(3,4-difluoro-phenyl)-ethyl]-2-(isopropyl-methyl-amino)-propionamide], the IC50 (thrombin) is reported as > 10 µM, the IC50 (trypsin) is reported as > 10 µM and the IC50 (Human KLK1) is reported as 0.004 µM. The IC50 (plasma kallikrein) was > 10 µM and the IC50 (plasmin) was > 10 µM.

For Cc1cc[nH]c1C(=O)N[C@@H](Cc1ccc(F)c(F)c1)C(=O)NCc1ccc(N)nc1 [Example 226, 3-Methyl-1H-pyrrole-2-carboxylic acid [(S)-1-[(6-amino-pyridin-3-ylmethyl)-carbamoyl]-2-(3,4-difluoro-phenyl)-ethyl]-amide], the IC50 (thrombin) was > 10 µM, the IC50 (trypsin) was > 10 µM and the IC50 (Human KLK1) was 0.0101 µM. For the same molecule, the IC50 (plasma kallikrein) was > 10 µM and the IC50 (plasmin) was > 10 µM.

In the case of Cc1cc(C)c(C(=O)N[C@@H](Cc2cccc(C(F)(F)F)c2)C(=O)NCc2ccc(N)nc2)[nH]1 [Example 232, 3,5-Dimethyl-1H-pyrrole-2-carboxylic acid [(S)-1-[(6-amino-pyridin-3-ylmethyl)-carbamoyl]-2-(3-trifluoromethyl-phenyl)-ethyl]-amide], the IC50 (thrombin) is reported as > 10 µM, the IC50 (trypsin) is reported as > 10 µM and the IC50 (Human KLK1) is reported as 0.0015 µM. The IC50 (plasma kallikrein) was > 10 µM and the IC50 (plasmin) was > 10 µM.

For CCC(C)[C@H](C(=O)N[C@@H](Cc1csc2ccccc12)C(=O)NCc1ccc(N)nc1)N(C)S(C)(=O)=O (stereo partly drawn) [Example 213, (R)-2-(Methanesulfonyl-methyl-amino)-3-methyl-pentanoic acid {(S)-1-[(6-amino-pyridin-3-ylmethyl)-carbamoyl]-2-benzo[b]thiophen-3-yl-ethyl}-amide], the IC50 (thrombin) was > 10 µM, the IC50 (trypsin) was > 10 µM and the IC50 (Human KLK1) was 0.0028 µM. For the same molecule, the IC50 (plasma kallikrein) was > 10 µM and the IC50 (plasmin) was > 10 µM.

Nc1ccc(CNC(=O)[C@H](Cc2cccc3ccccc23)NC(=O)c2ccc[nH]2)cn1 [Example 228, 1H-Pyrrole-2-carboxylic acid {(S)-1-[(6-amino-pyridin-3-ylmethyl)-carbamoyl]-2-naphthalen-1-yl-ethyl}-amide] was tested, and the IC50 (thrombin) was > 10 µM, the IC50 (trypsin) was > 10 µM and the IC50 (Human KLK1) was 0.0321 µM. The IC50 (plasma kallikrein) was > 10 µM and the IC50 (plasmin) was > 10 µM.

With CC(C)(C)[C@@H](N)C(=O)N[C@@H](Cc1ccc(Cl)c(Cl)c1)C(=O)NCc1ccc(N)nc1 [Example 61, (R)-2-Amino-N-[(S)-1-[(6-amino-pyridin-3-ylmethyl)-carbamoyl]-2-(3,4-dichloro-phenyl)-ethyl]-3,3-dimethyl-butyramide] the IC50 (thrombin) was > 10 µM, the IC50 (trypsin) was > 10 µM and the IC50 (Human KLK1) was 0.0004 µM. The IC50 (plasma kallikrein) was > 10 µM and the IC50 (plasmin) was > 10 µM.

In the case of CN1CCC[C@@H]1C(=O)N[C@@H](Cc1cccc2ccccc12)C(=O)NCc1ccc(N)nc1 [Example 92, (R)-1-Methyl-pyrrolidine-2-carboxylic acid {(S)-1-[(6-amino-pyridin-3-ylmethyl)-carbamoyl]-2-naphthalen-1-yl-ethyl}-amide], the IC50 (thrombin) is reported as > 10 µM, the IC50 (trypsin) is reported as > 10 µM and the IC50 (Human KLK1) is reported as 0.0036 µM. The IC50 (plasma kallikrein) was > 10 µM and the IC50 (plasmin) was > 10 µM.

With CN1CCC[C@@H]1C(=O)N[C@@H](Cc1ccc(F)c(F)c1)C(=O)NCc1ccc(N)nc1 [Example 5, (R)-1-Methyl-pyrrolidine-2-carboxylic acid [(S)-1-[(6-amino-pyridin-3-ylmethyl)-carbamoyl]-2-(3,4-difluoro-phenyl)-ethyl]-amide] the IC50 (thrombin) was > 10 µM, the IC50 (trypsin) was > 10 µM and the IC50 (Human KLK1) was 0.0013 µM. The IC50 (plasma kallikrein) was > 10 µM and the IC50 (plasmin) was > 10 µM.

For CCN1CCC[C@@H]1C(=O)N[C@@H](Cc1ccc(F)c(F)c1)C(=O)NCc1ccc(N)nc1 [Example 131, (R)-1-Ethyl-pyrrolidine-2-carboxylic acid [(S)-1-[(6-amino-pyridin-3-ylmethyl)-carbamoyl]-2-(3,4-difluoro-phenyl)-ethyl]-amide], the IC50 (thrombin) was > 10 µM, the IC50 (trypsin) was > 10 µM and the IC50 (Human KLK1) was 0.00054 µM. The IC50 (plasma kallikrein) was > 10 µM and the IC50 (plasmin) was > 10 µM.

For CCC(C)[C@@H](N)C(=O)N[C@@H](Cc1ccccc1)C(=O)NCc1ccc(N)nc1 (stereo partly drawn) [Example 26, (R)-2-Amino-3-methyl-pentanoic acid {(S)-1-[(6-amino-pyridin-3-ylmethyl)-carbamoyl]-2-phenyl-ethyl}-amide], the IC50 (thrombin) was > 10 µM, the IC50 (trypsin) was > 10 µM and the IC50 (Human KLK1) was 0.0205 µM. The IC50 (plasma kallikrein) was > 10 µM and the IC50 (plasmin) was > 10 µM.

With CN[C@H](C)C(=O)N[C@@H](Cc1ccc(Cl)c(Cl)c1)C(=O)NCc1ccc(N)nc1 [Example 62, (R)—N-[(S)-1-[(6-Amino-pyridin-3-ylmethyl)-carbamoyl]-2-(3,4-dichloro-phenyl)-ethyl]-2-methylamino-propionamide] the IC50 (thrombin) was > 10 µM, the IC50 (trypsin) was > 10 µM and the IC50 (Human KLK1) was 0.0024 µM. The IC50 (plasma kallikrein) was > 10 µM and the IC50 (plasmin) was > 10 µM.

For CCC(C)[C@@H](N)C(=O)N[C@@H](Cc1cccc(C(F)(F)F)c1)C(=O)NCc1ccc(N)nc1 (stereo partly drawn) [Example 30, (R)-2-Amino-3-methyl-pentanoic acid [(S)-1-[(6-amino-pyridin-3-ylmethyl)-carbamoyl]-2-(3-trifluoromethyl-phenyl)-ethyl]-amide], the IC50 (thrombin) was > 10 µM, the IC50 (trypsin) was > 10 µM and the IC50 (Human KLK1) was 0.0011 µM. The IC50 (plasma kallikrein) was > 10 µM and the IC50 (plasmin) was > 10 µM.

Nc1ccc(CNC(=O)[C@H](CC2CCCC3CCCCC32)NC(=O)[C@H](N)Cc2ccc(Cl)cc2)cn1 (stereo partly drawn) [Example 13, (R)-2-Amino-N-[(S)-1-[(6-amino-pyridin-3-ylmethyl)carbamoyl]-2-(decahydro-naphthalen-1-yl)-ethyl]-3-(4-chloro-phenyl)-propionamide] was tested, and the IC50 (thrombin) was > 10 µM, the IC50 (trypsin) was > 10 µM and the IC50 (Human KLK1) was 0.0098 µM. The IC50 (plasma kallikrein) was > 10 µM and the IC50 (plasmin) was > 10 µM.

With Nc1ccc(CNC(=O)[C@H](Cc2ccc(Cl)c(Cl)c2)NC(=O)[C@H](N)Cc2ccccc2)cn1 [Example 54, (R)-2-Amino-N-[(S)-1-[(6-amino-pyridin-3-ylmethyl)-carbamoyl]-2-(3,4-dichloro-phenyl)-ethyl]-3-phenyl-propionamide] the IC50 (thrombin) was > 10 µM, the IC50 (trypsin) was > 10 µM and the IC50 (Human KLK1) was 0.00029 µM. The IC50 (plasma kallikrein) was > 10 µM and the IC50 (plasmin) was > 10 µM.

For Cc1cc(C)c(C(=O)N[C@@H](Cc2ccc(F)c(F)c2)C(=O)NCc2ccc(N)nc2)[nH]1 [Example 243, 3,5-Dimethyl-1H-pyrrole-2-carboxylic acid [(S)-1-[(6-amino-pyridin-3-ylmethyl)-carbamoyl]-2-(3,4-difluoro-phenyl)-ethyl]-amide], the IC50 (thrombin) was > 10 µM, the IC50 (trypsin) was > 10 µM and the IC50 (Human KLK1) was 0.0034 µM. For the same molecule, the IC50 (plasma kallikrein) was > 10 µM and the IC50 (plasmin) was > 10 µM.
